Reference: patent publication US12427180B2, “Treatment of respiratory tract diseases and infections with ascorbic acid compositions” (RENOVION, INC., priority 2016, dated 2025)

What was measured:
[1] = Stability: oxidized glutathione and reduced ascorbic acid after storage; type: physicochemical; conditions: ascorbic acid only, pH not given; Ambient; stored at 5° C. for 4 weeks
Method: The amount of glutathione and ascorbic acid oxidiation were determined for Composition 1 at pH 5.5, 6.0, and 6.5. Oxidized glutathione is associated with the generation of protein-carbonyls via glutathionlyation, which occurs when oxidized glutathione dissociates and attaches to proteins. The % oxidized glutathione (% GSSG) was determined after 4 weeks of storage of Composition 1 at pH 5.5, 6.0, and 6.5 under N2-sparged and ambient conditions. Additionally, when ascorbic acid is oxidized into dehydroascorbate (DHA), DHA can break down and result in the formation of protein adducts in process called ascorbylation (Simpson et al., Biochim biophys Acta 2000; 1501:12-24). The % reduced ascorbic acid maintained in Composition 1 (% ASC) was determined after 4 weeks of storage of Composition 1 at pH 5.5, 6.0, and 6.5 under N2-sparged (anaerobic) and ambient conditions. Specifically, nitrogen-sparged samples were mixed under anaerobic conditions sparged with nitrogen, and the samples were packaged using nitrogen bubbling. Ambient samples were mixed under room air conditions and were not bubbled with nitrogen. The formulations were stored at 5° C. for 4 weeks, and the percent of oxidized glutathione (GSSG) and ascorbic acid (ASC) was measured for each sample according to standard techniques.

[2] = test system: Pa UAB-NM-3 (nonmucoidy P. aeruginosa clinical isolate from lung); experiment: MIC against Pa UAB-NM-3; type: cell-based, Pseudomonas aeruginosa; conditions: Anaerobic (+nitrate), 12 hrs
Method: (§1) The MICs of Composition 1 (glutathione, ascorbic acid, and HCO3); glutathione and ascorbic acid; and HCO3 were tested against clinical isolates, including Burkholderia cepacia, Pseudomonas aeruginosa (Schroeter) Migula (ATCC 27853), Pseudomonas aeruginosa (Schroeter) Migula (ATCC 9027), Pseudomonas aeruginosa (Schroeter) Migula (ATCC BAA-2114), Klebsiella pneumonia, methicillin resistant Staphylococcus aureus; laboratory strains of Moraxella catarrhalis, Stenotrophomonas maltophilia, Acinetobacter baumannii; and eight samples of mucoid and nonmucoid Pseudomonas aeruginosa clinical isolates from human lung. The MIC for laboratory clinical isolate Pseudomonas aeruginosa (Schroeter) Migula (ATCC BAA-47 (PAO1)) was also tested. The MICs were determined under anaerobic conditions on media supplemented with nitrate, under aerobic conditions supplemented with nitrate, or under ambient conditions.
(§2) The clinical isolates were inoculated in duplicate on agar plates overnight under anaerobic conditions at 36° C.±1.0° C. in a 96-well plate. Laboratory isolates of Burkholderia cepacia were also grown in duplicate overnight under aerobic conditions at 36° C.±1.0° C. in a 96-well plate. […] MICs were determined via visual inspection and OD620.

[3] = test system: Pa UAB-M-2 (mucoidy P. aeruginosa clinical isolate from lung); experiment: MIC against Pa UAB-M-2; type: cell-based, Pseudomonas aeruginosa; conditions: Anaerobic (+nitrate), 12 hrs
Method: as §1, §2

[4] = test system: Pa UAB-NM-5 (nonmucoidy P. aeruginosa clinical isolate from lung); experiment: MIC against Pa UAB-NM-5; type: cell-based, Pseudomonas aeruginosa; conditions: Anaerobic (+nitrate), 12 hrs
Method: as §1, §2

MRSA UAB-1 = experiment: MIC against MRSA UAB-1; type: cell-based, Staphylococcus aureus; conditions: Anaerobic (+nitrate), 12 hrs
Method: as §1, §2

[5] = test system: Pseudomonas aeruginosa (Schroeter) Migula (ATCC BAA-47 (PAO1)); experiment: MIC against Pa BAA-47 (PAO1); type: cell-based; conditions: Anaerobic (+nitrate), 12 hrs
Method: as §1, §2

[6] = test system: Pa UAB-NM-1 (nonmucoidy P. aeruginosa clinical isolate from lung); experiment: MIC against Pa UAB-NM-1; type: cell-based, Pseudomonas aeruginosa; conditions: Anaerobic (+nitrate), 12 hrs
Method: as §1, §2

MRSA UAB-3 = experiment: MIC against MRSA UAB-3; type: cell-based, Staphylococcus aureus; conditions: Anaerobic (+nitrate), 12 hrs
Method: as §1, §2

Compound	% ASC (reduced ascorbic acid maintained) [1] [%]	MIC [2]	MIC [3]	MIC [4]	MIC (MRSA UAB-1)	MIC [5]	MIC [6]	MIC (MRSA UAB-3)
O=C1O[C@H]([C@@H](O)CO)C(O)=C1O [Ascorbic Acid Only, ascorbic acid]	77.88							
O=C([O-])O.[Na+] [HCO3, sodium bicarbonate]		12.5% (12	12.5%(12	12.5% (12	25% (12	12.5% (12	12.5%(12	25% (12
